Results on one substance are retold here after patent US20070249545A1, “DIHYDROFOLATE REDUCTASE INHIBITION BY EPIGALLOCATECHIN GALLATE COMPOUNDS” (priority 2004, published 2007).

By IC50 is commonly meant the concentration at which inhibition is half-maximal. Read a low IC50 as inhibition by little substance. A word on the Ki: it is the equilibrium dissociation constant of an inhibitor or competing ligand from its target.

Where two headings read alike, the source gives them in different places.

One assay has as its system L1210 cells. As to the kind of experiment: EGCG cytotoxicity / growth of L1210 cells. The format is cell-based, mouse. As for the experimental part: L1210 cells were plated at a density of 10,000 cells/ml in 96-well plates with a “standard folate” RPMI 1640 medium supplemented with 10% FCS. Reversion experiments were carried out in an HT medium and/or by adding 50 μM ascorbic acid (AA). Cell injury was evaluated by a calorimetric assay for mitochondrial function using the MTT test.^29
The effect of different EGCG concentrations on L1210 cell growth after 29 h of treatment at two different folic acid concentrations was determined. The cells were previously adapted over a period of 2-3 days to grow in folate-free RPMI 1640 medium supplemented with 10% dialyzed FCS and 2 mM glutamine. This medium is subsequently referred to as LF (low folate). For the cytotoxicity assay, the cells were grown in LF media supplemented with folic acid (3 μM or 300 nM). Treatments were carried out in triplicate, and each experiment performed at least twice. Cell growth was determined by two different methods, Coulter counter Z2 and hemocytometer (FIG. 7). IC50 values were determined at each folic acid concentration added to the medium.
The growth-inhibitory effects of 10 μM EGCG at various folic acid concentrations were determined at two different time intervals. L1210 cells were cultured in a LF medium supplemented with the corresponding folic acid concentration. The data were obtained by using a Coulter counter and hemocytometer and expressed assuming a zero percentage of growth inhibition for untreated control (FIG. 8). Cells were maintained in the corresponding medium with 100 μg/ml of penicillin and streptomycin at 37° C. in a humid 7.5% CO2, […] environment for all the experiments.

The test system of assay [1] is p16. As to the kind of experiment: p16 methylation status in Jurkat T cells. The format is cell-based, human. Conditions: EGCG 20 μM, 7-days treatment.
Assay [2] concerns the target T1, recombinant human DHFR (rHDHFR) (Homo sapiens, UniProt P00374).
T1 sequence (P00374 1-187): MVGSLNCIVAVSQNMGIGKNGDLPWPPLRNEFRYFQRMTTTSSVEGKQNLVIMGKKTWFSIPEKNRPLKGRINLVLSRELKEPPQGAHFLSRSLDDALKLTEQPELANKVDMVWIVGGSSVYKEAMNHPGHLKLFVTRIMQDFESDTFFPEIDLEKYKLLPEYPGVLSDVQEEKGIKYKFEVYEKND
The experiment in a line: Inhibition of human DHFR by tea catechins. The format is biochemical.

The next assay concerns the target T2, bovine liver DHFR (Bos taurus, UniProt P00376).
T2 construct: from tissue; host or cells: bovine liver
T2 sequence (P00376 1-187): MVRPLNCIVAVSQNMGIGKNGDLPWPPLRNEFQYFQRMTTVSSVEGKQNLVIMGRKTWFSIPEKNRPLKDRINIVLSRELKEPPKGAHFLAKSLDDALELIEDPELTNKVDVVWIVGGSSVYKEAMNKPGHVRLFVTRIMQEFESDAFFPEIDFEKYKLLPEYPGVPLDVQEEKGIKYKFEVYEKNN
As to the kind of experiment: Kinetic analysis of inhibition of bovine liver DHFR. In kind it is biochemical. The method, then: The activity of DHFR was determined at 25° C. by following the decrease of NADPH and DHF by absorbance measurements at 340 nm (ε=11,800 M^−1 cm^−1) by using a Perkin-Elmer Lambda-2 spectrophotometer with cuvettes of 1.0 cm light-path.
Experiments were performed at pH 7.58 and 25° C. in a buffer containing 2-(N-morpholino)ethanesulfonic acid (MES, 25 mM), sodium acetate (25 mM), tris(hydroxymethyl)aminomethane (Tris 50 mM), and NaCl (100 mM). To prevent the oxidation of catechins, the reaction mixture contained 1 mM ascorbic acid. The pH of the reaction was measured before and after of the experiment. The assays were started by the addition of enzyme. In the absence of the enzyme, the rate of change of absorbance was negligible. […]
Progress curves for the slow, tight-binding inhibition of bovine liver DHFR by EGCG were determined by continuously monitoring the disappearance of NADPH and DHF after initiation of the reaction by the addition of 3.3 nM enzyme. Reaction mixtures contained buffer, NADPH (100 μM), DHF (20 μM) and EGCG. Assuming that the concentration of free inhibitor is not substantially altered by the formation of an enzyme-NADPH-inhibitor complex, the progress curve for the inhibition in the presence of saturating NADPH is described by Eqn. (1): P=vst+(v0−vs)(1−exp(−k′t))/k′
where vs, v0 and k′ represent the steady-state velocity, initial velocity and apparent first-order rate constant, respectively.
The values of k′ at different EGCG concentrations were obtained by non-linear regression analysis of the progress curves. KI and KI* denote the respective dissociation constants for the initial and equilibrium binding of inhibitors to the enzyme-NADPH complex (FIG. 5).

The test system of assay [3] is p16. As to the kind of experiment: p16 methylation status in Caco-2 cells. Particulars: EGCG 20 μM, 7-days treatment.
In another assay the target is T3, free rHDHFR (Homo sapiens, UniProt P00374).
T3 sequence (P00374 1-187): T1 sequence (P00374 1-187)
As to the kind of experiment: Binding of EGCG to free DHFR by quenching of enzyme fluorescence. Particulars: read-out: dissociation constant. The method, then:
The binding of EGCG to free DHFR was determined by following the decrease in enzyme fluorescence that occurs on formation of the enzyme-inhibitor complex. […] The binding of EGCG quenches this fluorescence. The data for the resulting titration curves were used for dissociation constant determinations.

In the case of (−)-epigallocatechin gallate [EGCG], the “growth inhibition in HT medium containing ascorbic acid, NAC or SOD” value in the assay on L1210 cells (L1210, EGCG 20 μM) is reported as “completely removed the inhibitory effect”. The “growth inhibition with ascorbic acid in the medium” value in the assay on L1210 cells (L1210, EGCG 20 μM, antioxidant ascorbic acid) is recorded as “partially lifted”. Also, the “growth inhibition in HT medium, low folate” value in the assay with L1210 cells (L1210, LF medium (30 nM folic acid), EGCG 1 μM) was “completely reversed”. Also, the “growth inhibition in HT medium” value in the assay on L1210 cells (L1210, hypoxanthine-thymidine (HT) medium, EGCG 20 μM) was “high level of inhibition reversal”. For the same substance, the IC50 with L1210 cells (RPMI 1640 medium with 10% FCS (standard folate)) worked out at 20000 nM. Also, the p16 methylation pattern entry with p16 [1] was “changed from methylated to unmethylated”. Also, in assay [2], the Ki came to 2000 nM and the “inhibition of rHDHFR activity” value is given as “potent inhibitors”. Moreover, at bovine liver DHFR, the k5 worked out at 0.13 min⁻¹, the k5/k6 was found to be 32.5 ratio, the k6 turned out to be 0.004 min⁻¹ and the type of inhibition result is on record as “slow tight-binding inhibitor”. In addition, on bovine liver DHFR (equilibrium binding to enzyme-NADPH complex, read-out: KI*), the Ki turned out to be 2.9 nM. Moreover, the Ki at bovine liver DHFR (initial binding to enzyme-NADPH complex, pH 7.58, 25° C., read-out: KI) came to 109 nM. Also, in the assay on p16 [3], the p16 methylation pattern result is “changed from methylated to unmethylated”. Further, the Kd at free rHDHFR was found to be 800 nM.
